Reference: publication PMC4742142, “Identification of novel, in vivo active Chk1 inhibitors utilizing structure guided drug design” (Oncotarget, 2015)
Several values for one entry are separate records, joined by “and”; a condition that tells them apart may be missing. Equal values may be shown once. Entries after “also recorded” stand apart in the source; their conditions may differ. Read-outs that look alike come from different tables or passages of the source.

Experiments:
[1] = target: Chk2 (Homo sapiens, UniProt O96017); experiment: In vitro kinase assay, Chk2; format: biochemical; conditions: full length Chk2
Chk2, sequence (O96017 whole entry): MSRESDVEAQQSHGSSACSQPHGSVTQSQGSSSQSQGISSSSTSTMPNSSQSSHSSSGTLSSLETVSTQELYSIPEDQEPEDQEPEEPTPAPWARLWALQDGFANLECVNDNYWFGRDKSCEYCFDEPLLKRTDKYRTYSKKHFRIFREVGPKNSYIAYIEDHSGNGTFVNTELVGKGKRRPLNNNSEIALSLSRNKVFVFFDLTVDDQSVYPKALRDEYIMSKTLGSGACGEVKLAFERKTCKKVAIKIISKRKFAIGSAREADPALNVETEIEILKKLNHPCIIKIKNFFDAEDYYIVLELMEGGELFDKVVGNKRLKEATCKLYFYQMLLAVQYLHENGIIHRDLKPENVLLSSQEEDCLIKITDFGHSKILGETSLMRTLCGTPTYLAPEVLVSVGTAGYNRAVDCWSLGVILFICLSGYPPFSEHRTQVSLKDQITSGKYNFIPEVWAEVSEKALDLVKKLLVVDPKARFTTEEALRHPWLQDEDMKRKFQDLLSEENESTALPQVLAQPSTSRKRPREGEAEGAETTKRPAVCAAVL
Procedure: (§1) Kinase assays were performed as previously described.

[2] = target: CDK1 (Homo sapiens, UniProt P06493); experiment: In vitro kinase assay, CDK1; format: biochemical
CDK1, sequence (P06493 whole entry): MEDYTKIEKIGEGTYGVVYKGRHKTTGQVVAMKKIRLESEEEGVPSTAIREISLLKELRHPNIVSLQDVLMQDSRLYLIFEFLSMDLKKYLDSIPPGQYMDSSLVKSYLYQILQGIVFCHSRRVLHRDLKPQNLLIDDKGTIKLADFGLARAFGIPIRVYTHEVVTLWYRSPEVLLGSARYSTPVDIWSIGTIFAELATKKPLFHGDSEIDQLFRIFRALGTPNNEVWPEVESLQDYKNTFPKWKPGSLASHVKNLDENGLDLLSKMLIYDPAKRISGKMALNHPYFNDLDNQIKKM
CDK1, sequence (P14635 whole entry partner): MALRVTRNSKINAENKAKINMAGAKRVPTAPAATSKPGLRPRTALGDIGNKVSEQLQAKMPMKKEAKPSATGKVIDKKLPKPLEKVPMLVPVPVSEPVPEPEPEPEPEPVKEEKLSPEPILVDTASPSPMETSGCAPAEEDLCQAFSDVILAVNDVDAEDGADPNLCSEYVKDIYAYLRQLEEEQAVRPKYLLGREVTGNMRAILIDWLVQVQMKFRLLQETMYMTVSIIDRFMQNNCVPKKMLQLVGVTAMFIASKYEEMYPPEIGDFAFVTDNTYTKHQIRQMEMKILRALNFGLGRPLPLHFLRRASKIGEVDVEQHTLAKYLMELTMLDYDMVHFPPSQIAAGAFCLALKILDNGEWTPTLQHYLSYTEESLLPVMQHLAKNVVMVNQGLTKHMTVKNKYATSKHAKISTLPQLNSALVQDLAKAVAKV
Procedure: as §1

[3] = tested on: pH2AX (S139); experiment: pH2AX ELISA in HT29 cells with gemcitabine; format: cell-based; conditions: Homo sapiens, HT-29, 50 nM gemcitabine, 24 hours, read-out: Gem pH2AX (S139) EC50
Procedure: 1 × 10^4 HT29 cells were seeded per well of a 96 well plate and treated with a combination of 50 nM gemcitabine plus increasing concentrations of V158411 for 24 hours. Following fixation with methanol, pH2AX was detected with a mouse monoclonal antibody (JBW301, Millipore) and a europium-labeled anti-mouse secondary antibody.

[4] = tested on: HT29 cells; experiment: Checkpoint abrogation assay (gemcitabine, nocodazole, pHH3 (S10)); format: cell-based, human
Procedure: The ability of V158411 to abrogate gemcitabine induced S-phase arrest was further characterized using a checkpoint abrogation assay. Cells were pre-treated with gemcitabine for 16 hours followed by increasing concentrations of V158411 in the presence of nocodazole, an inhibitor of microtubule polymerization, for a further 24 hours. Mitotic cells were then scored for pHH3 (S10) expression. p53 defective HT29 cells exposed to gemcitabine, which induces arrest in S-phase, were negative for pHH3 (S10) staining. V158411 treatment abrogated the gemcitabine induced S-phase arrest allowing cells to progress through into mitosis where they were trapped by nocodazole. These cells stained positive for pHH3 and are indicative of checkpoint abrogation.

[5] = tested on: panel of human cancer cell lines; experiment: Single agent cytotoxicity, whole panel; format: cell-based; conditions: range over the cell lines, read-out: GI50s across the panel
Procedure: All cells were obtained from the American Type Culture Collection and maintained as low passage stocks. Cells were routinely cultured in DMEM or RPMI1640 containing 10% FCS and 1% penicillin / streptomycin (Invitrogen). The cytotoxicity of V158411 was determined following exposure of cells in 96 well plates using a 10-point titration for 72 hours. Cell proliferation was determined using sulphorhodamine B staining following protein precipitation with 10% TCA.

[6] = Plasma pharmacokinetics, IV bolus; format: in vivo; conditions: 10 mg/kg IV; for Vd: read-out: Vss
Procedure: Dosing of animals and collection of samples was conducted by Quotient Bioresearch (Rushden) Ltd, UK. V158411 was administered by intravenous (IV) bolus injection to female Balb/C mice, male Sprague-Dawley rats or male beagle dogs. Plasma samples were prepared by protein precipitation with acetonitrile containing internal standard (IS; dextromethorphan, 0.5 μg/mL); the analysis plate was centrifuged at 3,000 rpm for 10 minutes at 4°C. […] The ratios of analyte against IS peak areas were calculated, and concentrations derived from calibration lines generated by Quanlynx (Waters Ltd.).
Pharmacokinetic parameters were calculated using the software package WinNonLin (Pharsight Corp.). Data was analyzed using noncompartmental analysis and fitted using plasma concentration versus time curves.

[7] = Tolerability (MTD) in female nu/nu mice; format: in vivo
From the text: Animals were weighed daily for the first five days then twice weekly thereafter for the duration of the study. The mice were observed frequently for overt signs of any adverse, treatment-related side effects, and clinical signs of toxicity recorded. Toxicity greater than a group mean body-weight loss of more than 20% or 1 in 10 treatment-related deaths was considered to be the maximum tolerated dose.

[8] = tested on: Colo205 xenografts; experiment: Colo205 xenograft antitumor efficacy; format: in vivo
From the text: (§2) Xenograft studies were undertaken by Charles River Laboratories Discovery Services, North Carolina. On the day of tumor cell implant, Colo205 cells were harvested and resuspended in 50% Matrigel matrix (BD Biosciences) in PBS at a concentration of 5 × 10^6 cells/mL. Each test mouse received 1 × 10^6 Colo205 cells implanted subcutaneously (SC) in the flank of female athymic nude mice (HRLN or NCr nu/nu), and tumor growth was monitored as the average size approached 100-150 mm^3. The SW620 tumor line was maintained by serial SC transplantation in female athymic nude mice (HRLN nu/nu). Tumor fragments, approximately 1 mm^3 each, were implanted SC into the right flank of each animal and allowed to grow towards a target size of 100-150 mm^3. On day 1 of the study, tumors were randomized into treatment groups before compound administration.
(§3) V158411 was formulated in D5W and administered via IV injection into the tail vein. Cyclic treatment regimens were followed and treatment ranged from 2-3 cycles.
(§4) Tumor size was measured with electronic calipers and tumor volume calculated according to the formula ((width × width) × length) /2.
(§5) The study endpoint was defined as a tumor volume of 750 mm^3 for Colo205 or 1500 mm^3 for SW620, or day 60, whichever came first. Each animal was euthanized when its' tumor reached this endpoint. The time to endpoint (TTE) for each mouse was calculated from the equation TTE = (log10(endpoint volume)-b)/m where b is the intercept and m the slope of the line obtained by linear regression of a log-transformed tumor growth data set.

[9] = tested on: SW620 xenograft; experiment: SW620 xenograft antitumor efficacy
From the text: as §2, §3, §4, §5

[10] = Colo205, 75 mg/kg irinotecan IP followed by 30 mg/kg V158411 IV
[11] = Colo205, 75 mg/kg irinotecan IP followed by 60 mg/kg V158411 IV
[12] = SW620, 100 mg/kg irinotecan followed by 30 mg/kg V158411
[13] = SW620, 100 mg/kg irinotecan followed by 60 mg/kg V158411

CN(C)CC(C)(C)COc1ccc2[nH]c(-c3cc(NC(=O)c4cnn(Cc5ccccc5)c4)c[nH]c3=O)cc2c1 [V158411]
IC50 [1]: 4.5 nM | IC50 [2]: > 50000 nM | selectivity for CDK1 ([2]; Chk1 versus CDK1): more than 10 000 fold | EC50 [3]: 51 nM | concentration of maximal abrogation of gemcitabine induced S-phase arrest [4]: around 300 nM | EC50 ([4]; Homo sapiens, HT-29, gemcitabine 16 hours then compound plus nocodazole 24 hours, read-out: Gem pHH3 (S10) MI EC50 (abrogation of gemcitabine induced S-phase arrest)): 79 nM | IC50 [5]: 500 to 9500 nM | AUC(0-t) ([6]; female, Balb/C, mouse): 7100 ng·h/mL | clearance ([6]; female, Balb/C, mouse): 20 mL/min/kg | half-life ([6]; female, Balb/C, mouse): 2.9 h | Vd ([6]; female, Balb/C, mouse): 3.3 L/kg | AUC(0-t) ([6]; male, Sprague-Dawley, rat): 6910 ng·h/mL | clearance ([6]; male, Sprague-Dawley, rat): 23.2 mL/min/kg | half-life ([6]; male, Sprague-Dawley, rat): 3.3 h | Vd ([6]; male, Sprague-Dawley, rat): 2.4 L/kg | AUC(0-t) ([6]; male, beagle, dog): 16000 ng·h/mL | clearance ([6]; male, beagle, dog): 10.6 mL/min/kg | half-life ([6]; male, beagle, dog): 3.2 h | Vd ([6]; male, beagle, dog): 1.2 L/kg | toxicity / maximum tolerated dose ([7]; IV bolus once or twice weekly, doses up to 100 mg/kg): minimal toxicity at doses up to 100 mg/kg; also recorded: the maximum tolerated dose of V158411 has yet to be found | effect on irinotecan toxicity ([7]; MTD irinotecan (100 mg/kg IP) plus V158411 up to 100 mg/kg IV 2 hours later, q7d 3 weeks): did not result in increased irinotecan toxicity; also recorded: did not affect the toxicity of irinotecan | acute, dose-related effects ([7]; single agent IV, self-limiting, minimized by slow infusion): flushing, tachycardia, exophthalmos | effect on body weight ([7]; single agent, 60 to 100 mg/kg IV q7d for 21 days, female nude mice): no effect on body weight loss | Median TTE ([8]; Colo205, 60 mg/kg IV V158411 monotherapy, untreated 19.8 days): 22.3 days | single agent anti-tumor activity ([8]; Colo205, 60 mg/kg V158411 monotherapy): inactive; also recorded: no single agent activity | %TGD [8, 10]: 129% | T-C [8, 10]: 25.6 | Median TTE ([8]; Colo205, 75 mg/kg irinotecan IP followed by 30 mg/kg V158411 IV 2 hours later, q7d 3 cycles): 45.4 days | %TGD [8, 11]: 203% | T-C [8, 11]: 40.2 | Median TTE ([8]; Colo205, 75 mg/kg irinotecan IP followed by 60 mg/kg V158411 IV 2 hours later, q7d 3 cycles, study end day 60): 60.0 days and 60 days | mean body weight nadir ([8]; Colo205, irinotecan plus V158411 combination therapy, day 4): −2.7% | %TGD [9, 12]: 117% | T-C [9, 12]: 15.5 | Median TTE ([9]; SW620, 100 mg/kg irinotecan followed by 30 mg/kg V158411 2 hours later): 28.8 days | %TGD [9, 13]: 154% | T-C [9, 13]: 21.3 | Median TTE ([9]; SW620, 100 mg/kg irinotecan followed by 60 mg/kg V158411 2 hours later): 35.1 days | single agent anti-tumor activity ([9]; SW620, V158411 monotherapy): did not inhibit tumor growth; also recorded: no single agent activity | mean body weight nadir ([9]; SW620, irinotecan plus 60 mg/kg V158411, day 5): −13.3%
